Results reported in the supplement of paper PMC11061612.

How the values were obtained:
[1] = system: TE-1 (Esophageal Squamous Cell Carcinoma); assay: Bliss excess, mean over the matrix (fraction); higher = more synergy
Method in brief: (§1)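 After 24 hours at 37°C and 5% CO2 in 1536-well plates, cells in DMEM/F12 or RPMI plus 10% FBS received two-drug dose matrices for 72 hours. Viability came from CellTiter-Glo 2.0 luminescence and was scaled as inhibition, anchored at 0 by vehicle wells and at 1 by blank wells. Combination Emax is taken as the second-highest inhibition in the matrix, and Bliss excess as the observed combination effect less EA + EB − EA·EB, with EA and EB the single-agent effects.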

[2] = system: NEC8 (Other Solid Carcinomas); assay: as above
Method in brief: as §1

[3] = system: SU8686 (Pancreatic Carcinoma); assay: as above
Method in brief: as §1

PWR-1E (Non-Cancerous) [4] = assay: as above
Method in brief: as §1

[5] = system: HOP-62 (Lung Adenocarcinoma); assay: as above
Method in brief: as §1

[6] = system: HGC-27 (Gastric Carcinoma); assay: as above
Method in brief: as §1

[7] = system: KMOE-2 (Acute Myeloid Leukemia); assay: as above
Method in brief: as §1

[8] = system: TE-1 (Esophageal Squamous Cell Carcinoma); assay: combination Emax (second highest fraction inhibited in the dose matrix, 72 h); higher = more inhibition; extreme values may be limits of the assay
Method in brief: as §1

[9] = system: NUGC-3 (Gastric Carcinoma); assay: as above
Method in brief: as §1

[10] = system: SCC-15 (Oral Cavity Carcinoma); assay: as above
Method in brief: as §1

[11] = system: OVCAR-4 (Ovarian Carcinoma); assay: as above
Method in brief: as §1

[12] = system: NEC8 (Other Solid Carcinomas); assay: as above
Method in brief: as §1

[13] = system: C-4-I (Cervical Carcinoma); assay: as above
Method in brief: as §1

[14] = system: SU8686 (Pancreatic Carcinoma); assay: as above
Method in brief: as §1

[15] = system: OSC-20 (Oral Cavity Carcinoma); assay: as above
Method in brief: as §1

[16] = system: JVM-3 (B-Cell Non-Hodgkin's Lymphoma); assay: as above
Method in brief: as §1

PWR-1E (Non-Cancerous) [17] = assay: as above
Method in brief: as §1

[18] = system: HOP-62 (Lung Adenocarcinoma); assay: as above
Method in brief: as §1

[19] = system: HGC-27 (Gastric Carcinoma); assay: as above
Method in brief: as §1

[20] = system: KMOE-2 (Acute Myeloid Leukemia); assay: as above
Method in brief: as §1
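For Bliss excess, mean over the matrix in this document: after 72 h of two-drug dosing.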

SMILES | Bliss excess [1] | Bliss excess [2] | Bliss excess [3] | Bliss excess (PWR-1E (Non-Cancerous) [4]) | Bliss excess [5] | Bliss excess [6] | Bliss excess [7] | combination Emax [8] | combination Emax [9] | combination Emax [10] | combination Emax [11] | combination Emax [12] | combination Emax [13] | combination Emax [14] | combination Emax [15] | combination Emax [16] | combination Emax (PWR-1E (Non-Cancerous) [17]) | combination Emax [18] | combination Emax [19] | combination Emax [20]
COc1cc2c(cc1OCCCCCOc1cc3c(cc1OC)C(=O)N1C=C(C)C[C@H]1C=N3)N=C[C@@H]1CC(C)=CN1C2=O [SG3199] + O=C(c1cc(Cc2n[nH]c(=O)c3ccccc23)ccc1F)N1CCN(C(=O)C2CC2)CC1 [Olaparib] (first compound max 0.001 µM, 7x7, partner max 10 µM) | -0.0286 | 0.0376 | -0.0388 | -0.0258 | -0.0276 | 0.0358 | -0.0283 | 0.194 | 0.124 | 0.0778 | 0.126 | 0.201 | 0.184 | 0.0347 | 0.145 | 0.335 | 0.0981 | 0.118 | 0.464 | 0.0783
Cc1cc2ncnn2cc1Nc1ncc2c(n1)n(C1CCOCC1)c(=O)n2C [AZD7648] + C=CCn1c(=O)c2cnc(Nc3ccc(N4CCN(C)CC4)cc3)nc2n1-c1cccc(C(C)(C)O)n1 [AZD1775] (first compound max 10 µM, partner max 1 µM) | -0.0045 | 0.0004 | -0.0542 | 0.0256 | -0.0093 | -0.012 | -0.0329 | 0.621 | 0.587 | 0.439 | 0.607 | 0.123 | 0.899 | 0.224 | 0.354 | 0.904 | 0.562 | 0.241 | 0.771 | 0.924
CN(CCO)CC[C@H](CSc1ccccc1)Nc1ccc(S(=O)(=O)NC(=O)c2ccc(N3CCC([C@@H](O)c4ccccc4-c4ccc(Cl)cc4)CC3)cc2)cc1S(=O)(=O)C(F)(F)F [AZD4320] + C=CCn1c(=O)c2cnc(Nc3ccc(N4CCN(C)CC4)cc3)nc2n1-c1cccc(C(C)(C)O)n1 [AZD1775] (first compound max 1 µM, partner max 1 µM) | -0.0034 | 0.0272 | -0.0598 | -0.0111 | -0.0356 | -0.018 | 0.0656 | 0.824 | 0.764 | 0.551 | 0.662 | 0.414 | 0.946 | 0.238 | 0.119 | 1 | 0.338 | 0.458 | 0.543 | 1
Cc1cc2ncnn2cc1Nc1ncc2c(n1)n(C1CCOCC1)c(=O)n2C [AZD7648] + CN(C)CCCOc1ccc(-c2ccc3ncc4c(c3c2)n(C2CCOCC2)c(=O)n4C)cn1 [AZD0156] (first compound max 10 µM, 7x7, partner max 1 µM) | -0.051 | -0.0007 | -0.0144 | 0.0532 | -0.0173 | 0.0101 | 0.0226 | 0.19 | 0.296 | 0.292 | 0.185 | 0.0719 | 0.211 | 0.143 | 0.224 | 0.638 | 0.363 | 0.144 | 0.611 | 0.213
